Experimental data as given in patent US5929027A, “Physiologically active polypeptide-containing pharmaceutical composition” (priority 1991, dated 1999).

Assays:
[1] = Beagle dog, sublingual, tartaric acid 10 w/v % + S-570 2 w/v %, FIG. 8
[2] = tested on: calcium and phosphur in blood; assay: Experiment 11: blood calcium and phosphur concentration after sublingual rapidly soluble composition; type: in vivo; settings: Beagle dog, tartaric acid 10 w/v % + S-570 2 w/v %, FIG. 8
From the text: The results are shown in the accompanying FIG. 8.

[3] = in vivo; settings: male, Beagle, dog, serum, 1 mg, Maximum blood concentration of human calcitonin in average (pg/ml), sublingual rapidly soluble composition
Method: Each one of the test material was administered by a sublingual route to a male Beagle dog which fasted over-night, and the blood was collected at intervals (after 10, 20, 30, 45 and 60 minutes). After the serum was separated, the calcium concentration in serum was measured with Calcium C kit (manufactured by Wako Junyaku K. K., Japan) (n=3).
In the same manner as in Experiment 8, the test material was administered to the dog, and the blood was collected at intervals. After the serum was separated, the human calcitonin concentration in serum was measured by RIA.

Structure (SMILES): CC[C@H](C)[C@H](NC(=O)[C@H](C)NC(=O)[C@@H](NC(=O)[C@H](CCC(N)=O)NC(=O)[C@@H]1CCCN1C(=O)[C@H](Cc1ccccc1)NC(=O)[C@@H](NC(=O)[C@H](Cc1c[nH]cn1)NC(=O)[C@H](Cc1ccccc1)NC(=O)[C@H](CCCCN)NC(=O)[C@H](CC(N)=O)NC(=O)[C@H](Cc1ccccc1)NC(=O)[C@H](CC(=O)O)NC(=O)[C@H](CCC(N)=O)NC(=O)[C@@H](NC(=O)[C@H](Cc1ccc(O)cc1)NC(=O)[C@@H](NC(=O)CNC(=O)[C@H](CC(C)C)NC(=O)[C@H](CCSC)NC(=O)[C@@H]1CSSC[C@H](N)C(=O)NCC(=O)N[C@@H](CC(N)=O)C(=O)N[C@@H](CC(C)C)C(=O)N[C@@H](CO)C(=O)N[C@@H]([C@@H](C)O)C(=O)N1)[C@@H](C)O)[C@@H](C)O)[C@@H](C)O)[C@@H](C)O)C(=O)NCC(=O)N[C@H](C(=O)NCC(=O)N[C@@H](C)C(=O)N1CCC[C@H]1C(N)=O)C(C)C [human calcitonin]
- blood human calcitonin concentration [1]: increase
- concentration of calcium in blood [2]: lowered
- concentration of phosphur in blood [2]: lowered
- Cmax ([3]; S-970 1.0 w/v %, citric acid 2.0 w/v %): 0.086 ng/mL
- Cmax ([3]; S-970 2.5 w/v %, citric acid 5.0 w/v %): 0.191 ng/mL
- Cmax ([3]; S-970 5.0 w/v %, citric acid 10.0 w/v %): 1.12 ng/mL
- Cmax ([3]; S-970 10.0 w/v %, citric acid 20.0 w/v %): 1.65 ng/mL
